Measured values from patent US7696244B2, “Compounds having activity in increasing ion transport by mutant-CFTR and uses thereof” (The Regents of the University of California, priority 2003, dated 2010).

Experiments:
[1] = system: phosphatase activity; assay: Phosphatase activity assay on cell homogenates; type: biochemical
Method: (§1) cAMP activity was measured using the BIOTRAK enzymatic immunoassay (Amersham) on FRT cell lysates after incubation with the compound of interest for 10 min without or with 0.5 μM forskolin. Phosphatase activity was determined on cell homogenates using a non-radioactive assay kit (Promega) as described previously (Galietta et al., (2001) J. Biol. Chem. 276, 19723-19728).
(§2) The compounds shown in FIGS. 2A and 3A were assayed for cAMP stimulation and phosphatase inhibition. Cellular cAMP content was measured in FRT cells in the presence of a low forskolin concentration (0.5 μM) with or without test compounds. […] Maximal forskolin (20 μM) gave 1350±17 finol/well. The ΔF508 potentiators at 5 μM gave no increase in cellular cAMP content, except for ΔF508act-04 and ΔF508act-06, which gave modest cAMP elevations (212±17 and 281±37 finol/well, respectively). […] The ΔF508-CFTR potentiators (25 μM, 48 h) were judged to be non-toxic to FRT cells by the dihydrorhodamine assay (Wang et al., (2000) J. Physiol. 524:637-638) and by unimpaired cell growth.

[2] = target: T1, human ΔF508-CFTR (Homo sapiens, UniProt P13569, DEL508-508); assay: Fluorescence (YFP-H148Q/I152L) I− influx assay of ΔF508-CFTR potentiator activity in FRT cells; type: cell-based; conditions: for Kd: FRT cells, 27° C. rescue, forskolin 20 μM, read-out: Kd for activation of ΔF508-CFTR from the fluorescence assay
T1 construct: expressed in transfected cells; host or cells: Fischer rat thyroid (FRT) epithelial cells
Method: (§3) Clonal populations of Fischer rat thyroid (FRT) epithelial cells stably co-expressing human ΔF508-CFTR and the high-sensitivity halide-sensing green fluorescent analog YFP-H148Q/I152L (Galietta et al., A.S. (2001) FEBS Lett. 499, 220-224) were generated by liposome transfection and limiting dilution with Zeocin/G418 selection. More than 100 clones were evaluated for high fluorescence and ΔF508-CFTR plasma membrane targeting after growth at 27° C. for 24 hours. For screening, cells were cultured on plastic in Coon's modified F12 medium supplemented with 10% fetal bovine serum, 2 mM L-glutamnine, 100 U/ml penicillin, and 100 μg/ml streptomycin, and plated on black 96-well microplates (Corning-Costar 3904) at 30,000 cells/well. For short-circuit measurements cells were cultured on Snapwell permeable supports (Corning-Costar) at 500,000 cells/insert. Some measurements were done using stably transfected FRT cells expressing YFP-H148Q and wildtype- or G551D-CFTR (Galietta et al., (2001) J. Biol. Chem. 276, 19723-19728). Patch clamp experiments were done on ΔF508-CFTR-expressing FRT cells plated in 35-mm Petri dishes.
For assay of ΔF508-CFTR potentiator activity the incubator (27° C., 90% humidity, 5% CO2/95% air) was loaded with forty-to-sixty 96-well plates containing FRT cells. After an 18-24 hour incubation plates were washed 3 times with PBS (300 μl/wash) leaving 50 μl PBS. 10 μl of PBS containing 120 μM forskolin was added, and after 5 min test compounds (0.6 μl of 0.25 mM DMSO solution) were added to each well to give 2.5 μM final-compound concentrations. After 15 min, 96-well plates were transferred to a plate reader for fluorescence assay. Each well was assayed individually for I^− influx by recording fluorescence continuously (200 ms per point) for 2 s (baseline) and then for 12 s after rapid (<1 s) addition of 160 μL of isosmolar PBS in which 137 mM Cl^− was replaced by I^−.I^− influx rates were computed from initial fluorescence versus time-curve slopes (determined by 3rd order polynomial regression) after normalization for total fluorescence (background subtracted initial fluorescence).
The high-throughput screen was designed to identify compounds that activated ΔF508-CFTR when expressed at the cell plasma membrane. FRT epithelial cells co-expressing ΔF508-CFTR and a high sensitivity green fluorescent protein-based halide indicator were incubated at 27° C. for 24 h to permit ΔF508-CFTR plasma membrane targeting (FIG. 1A). After washing, forskolin (20 μM) and test compounds (2.5 μM) were added to individual wells of 96-well plates. The I^− influx assay was carried out ˜15 min later by measurement of the time course of decreasing YFP fluorescence after creation of an inwardly-directed I^− gradient. A high concentration of forskolin was used to identify ΔF508-CFTR potentiators that may interact directly with ΔF508-CFTR rather than alter cAMP concentration. Since activation of CFTR requires cAMP stimulation, forskolin, an enhancer of cAMP, was added to the in vitro models in order to mimic the cellular cAMP stimulation.
The strong potentiators were subjected to secondary analysis to select a subset for further analysis. None of the strong potentiators stimulated I^− influx in the fluorescence assay using FRT null cells (expressing YFP-H148Q/[…] alone) or in ΔF508-CFTR expressing cells in the absence of forskolin. The increased I^− influx for each potentiator was blocked by the thiazolidinone CFTR inhibitor CFTRinh-172 (19). […] Several of these compounds are shown in FIG. 6, along with data as to the activity of these compounds.

[3] = system: human bronchial epithelial cells; assay: Short-circuit current in human bronchial epithelial cells; type: cell-based; conditions: S.E., n=3-5
Method: Using chamber experiments were performed 7-9 days after plating ΔF508-CFTR expressing FRT cells on Snapwell inserts. The basolateral solution contained (in mM): 130 NaCl, 2.7 KCl, 1.5 KH2PO4, 1 CaCl2, 0.5 MgCl2, 10 glucose, 10 Na-Hepes (pH 7.3). In the apical bathing solution 65 mM NaCl was replaced by Na gluconate, and CaCl2 was increased to 2 mM. Solutions were bubbled with air and maintained at 37° C. The basolateral membrane was permeabilized with 250 μg/ml amphotericin B. For human bronchial epithelial cells, apical and basolateral chambers contained 126 mM NaCl, 0.38 mM KH2PO4, 2.1 mM K2HPO, 1 mM MgSO4, 1 mM CaCl2, 24 mM NaHCO3, and 10 mM glucose (basolateral membrane not permeabilized). The hemichambers were connected to a DVC-1000 voltage clamp (World Precision Instruments) via Ag/AgCl electrodes and 1 M KCl agar bridges for recording short-circuit current
The mean increase in short-circuit current (Isc) was 1.2±0.1 μA/cm^2 in the human cells (S.E., n=25). In five sets of measurements on the human bronchial cells, the percentage increase in Isc after compound versus forskolin alone was 174±28 (genistein); percentages for ΔF508act-01 through ΔF508act-06 were (S.E., n=3-5): 174±34, 131±35, 40±11, 51±17, 107±42, and 104±35, respectively.

[4] = target: T2, wildtype CFTR (Homo sapiens, UniProt P13569); assay: Activation of wildtype CFTR in transfected FRT cells; type: cell-based; conditions: in the presence of forskolin 50 nM
T2 construct: expressed in transfected cells; host or cells: FRT cells
Method: as §3
The six ΔF508-CFTR potentiators shown in FIG. 2A were tested for activation of wildtype and G551D-CFTR in transfected FRT cells. […] Kd values for activation of wildtype CFTR by ΔF508act-01 through ΔF508act-06 were (in μM): 0.18±0.02, 1.3±0.2, 2.2±0.3, 0.02±0.005, 0.06±0.01 and 0.05±0.01, respectively. These potencies are quite different from those for ΔF508-CFTR activation.

[5] = system: cellular cAMP content; assay: Cellular cAMP content in FRT cells (BIOTRAK enzymatic immunoassay); type: cell-based, rat
Method: as §1, §2

[6] = target: T3, G551D-CFTR (Homo sapiens, UniProt P13569, G551D); assay: Activation of G551D-CFTR in transfected FRT cells; type: cell-based; conditions: positive control 50 μM + 20 μM forskolin
T3 construct: expressed in transfected cells; host or cells: FRT cells
Method: as §3, with “For screening, cells were cultured on plastic in Coon's modified F12 medium supplemented with 10% fetal bovine serum, 2 mM L-glutamnine, 100 U/ml penicillin, and 100 μg/ml streptomycin, and plated on black 96-well microplates (Corning-Costar 3904) at 30,000 cells/well.” left out

[7] = compound 5 μM, forskolin 0.5 μM, control 129±7

T1 sequence (P13569 with tags, fused parts or gaps DEL508-508): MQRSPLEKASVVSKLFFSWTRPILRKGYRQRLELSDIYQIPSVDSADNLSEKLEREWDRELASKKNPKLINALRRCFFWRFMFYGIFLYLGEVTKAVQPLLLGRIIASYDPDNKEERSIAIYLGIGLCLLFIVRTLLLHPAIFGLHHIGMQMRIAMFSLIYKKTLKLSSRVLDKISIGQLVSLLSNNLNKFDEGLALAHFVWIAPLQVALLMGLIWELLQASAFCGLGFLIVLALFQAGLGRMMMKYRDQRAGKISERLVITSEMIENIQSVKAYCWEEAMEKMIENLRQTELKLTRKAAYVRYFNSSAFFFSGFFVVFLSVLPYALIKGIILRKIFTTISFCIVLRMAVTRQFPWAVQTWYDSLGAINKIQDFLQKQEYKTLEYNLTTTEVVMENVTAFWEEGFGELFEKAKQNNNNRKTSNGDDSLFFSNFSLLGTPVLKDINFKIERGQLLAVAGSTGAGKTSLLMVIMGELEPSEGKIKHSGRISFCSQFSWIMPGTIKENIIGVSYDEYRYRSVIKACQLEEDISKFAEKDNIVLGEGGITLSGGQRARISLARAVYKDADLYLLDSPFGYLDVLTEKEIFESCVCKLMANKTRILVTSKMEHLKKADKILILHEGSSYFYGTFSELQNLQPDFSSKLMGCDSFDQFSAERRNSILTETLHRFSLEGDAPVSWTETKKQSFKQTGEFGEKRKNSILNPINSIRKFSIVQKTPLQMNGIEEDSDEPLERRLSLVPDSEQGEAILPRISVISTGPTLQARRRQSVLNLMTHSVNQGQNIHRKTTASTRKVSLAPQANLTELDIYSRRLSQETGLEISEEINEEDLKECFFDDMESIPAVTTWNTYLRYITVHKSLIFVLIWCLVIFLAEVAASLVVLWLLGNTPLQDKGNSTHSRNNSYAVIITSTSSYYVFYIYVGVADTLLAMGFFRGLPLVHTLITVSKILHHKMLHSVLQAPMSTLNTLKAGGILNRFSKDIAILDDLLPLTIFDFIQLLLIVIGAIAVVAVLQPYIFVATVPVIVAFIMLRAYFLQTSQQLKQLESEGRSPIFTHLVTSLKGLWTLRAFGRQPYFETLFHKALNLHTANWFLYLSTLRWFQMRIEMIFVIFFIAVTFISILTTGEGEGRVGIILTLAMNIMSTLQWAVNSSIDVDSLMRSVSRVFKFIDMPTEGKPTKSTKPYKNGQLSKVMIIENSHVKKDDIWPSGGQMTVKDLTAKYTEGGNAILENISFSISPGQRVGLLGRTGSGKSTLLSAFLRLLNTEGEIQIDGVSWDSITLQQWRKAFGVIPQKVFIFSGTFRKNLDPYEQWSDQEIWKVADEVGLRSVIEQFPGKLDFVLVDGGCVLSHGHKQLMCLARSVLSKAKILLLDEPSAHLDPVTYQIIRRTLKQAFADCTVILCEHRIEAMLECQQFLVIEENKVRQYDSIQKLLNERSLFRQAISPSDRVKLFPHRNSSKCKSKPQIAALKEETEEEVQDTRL
T2 sequence (P13569 whole entry): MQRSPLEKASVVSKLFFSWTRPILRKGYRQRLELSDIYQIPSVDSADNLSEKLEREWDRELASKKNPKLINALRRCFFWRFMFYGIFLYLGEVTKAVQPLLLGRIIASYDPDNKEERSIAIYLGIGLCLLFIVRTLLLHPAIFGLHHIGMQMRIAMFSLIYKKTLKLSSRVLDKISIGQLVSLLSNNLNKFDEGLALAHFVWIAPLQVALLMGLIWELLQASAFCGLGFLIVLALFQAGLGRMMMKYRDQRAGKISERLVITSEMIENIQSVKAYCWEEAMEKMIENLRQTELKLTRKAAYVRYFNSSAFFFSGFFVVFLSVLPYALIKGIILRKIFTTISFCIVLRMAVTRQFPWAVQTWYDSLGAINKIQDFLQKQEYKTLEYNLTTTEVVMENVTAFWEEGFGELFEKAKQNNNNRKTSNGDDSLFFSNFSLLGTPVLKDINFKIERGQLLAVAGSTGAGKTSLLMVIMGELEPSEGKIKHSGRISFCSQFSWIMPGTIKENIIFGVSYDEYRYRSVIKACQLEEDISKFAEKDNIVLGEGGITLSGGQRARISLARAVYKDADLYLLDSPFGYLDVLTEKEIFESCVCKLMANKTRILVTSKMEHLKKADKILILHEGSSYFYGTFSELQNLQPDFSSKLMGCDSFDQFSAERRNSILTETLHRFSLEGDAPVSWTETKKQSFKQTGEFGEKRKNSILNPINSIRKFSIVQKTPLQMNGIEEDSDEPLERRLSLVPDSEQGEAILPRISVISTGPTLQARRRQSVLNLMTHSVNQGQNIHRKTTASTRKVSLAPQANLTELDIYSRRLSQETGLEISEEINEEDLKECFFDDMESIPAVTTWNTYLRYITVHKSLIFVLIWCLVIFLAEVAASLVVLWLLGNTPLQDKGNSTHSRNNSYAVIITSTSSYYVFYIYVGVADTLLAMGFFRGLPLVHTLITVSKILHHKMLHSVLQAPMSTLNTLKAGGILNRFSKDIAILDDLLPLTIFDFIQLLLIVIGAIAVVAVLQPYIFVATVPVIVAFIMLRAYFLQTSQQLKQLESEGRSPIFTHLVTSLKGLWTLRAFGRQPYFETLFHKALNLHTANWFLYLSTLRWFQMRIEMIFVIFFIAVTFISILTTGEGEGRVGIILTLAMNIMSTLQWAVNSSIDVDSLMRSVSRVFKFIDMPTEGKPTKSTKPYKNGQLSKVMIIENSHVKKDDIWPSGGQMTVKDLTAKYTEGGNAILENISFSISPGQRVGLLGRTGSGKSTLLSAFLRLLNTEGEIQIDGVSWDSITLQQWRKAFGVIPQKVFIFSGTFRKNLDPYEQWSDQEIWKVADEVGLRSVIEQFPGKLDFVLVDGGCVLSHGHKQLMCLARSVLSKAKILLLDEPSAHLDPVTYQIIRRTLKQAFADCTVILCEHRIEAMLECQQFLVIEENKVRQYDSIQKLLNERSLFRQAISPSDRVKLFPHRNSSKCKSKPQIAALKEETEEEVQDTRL
T3 sequence (P13569 whole entry G551D): as the sequence (P13569 whole entry) above, with G551D counted along it

Row | Structure (SMILES) | percentage increase in Isc after compound versus forskolin alone [3] | Kd [2] | Kd [4] | further results
1 | C=C1[C@@H](O)[C@@H]2O[C@]3(CC[C@H](/C=C/[C@@H](C)[C@@H]4CC(C)=C[C@@]5(O[C@H](C[C@@](C)(O)C(=O)O)CC[C@H]5O)O4)O3)CC[C@H]2O[C@@H]1[C@@H](O)C[C@H](C)[C@H]1O[C@@]2(CCCCO2)CC[C@H]1C [okadaic acid] | – | – | – | inhibition of phosphatase activity [1]: > 90%; phosphatase activity ([1]; control 703±69): 56±15 pmol free phosphate/μg protein
2 | O=C(O)c1ccc(/C=C2\SC(=S)N(c3cccc(C(F)(F)F)c3)C2=O)cc1 [CFTRinh-172, reference compound] | – | – | – | effect on potentiator-increased I− influx [2]: blocked
3 | COC(=O)C1=C(C)NC(C)=C(C(=O)OC)C1c1ccc(C(C)C)cc1 [ΔF508act-05, 4-(4-Isopropyl-phenyl)-2,6-dimethyl-1,4-dihydro-pyridine-3,5-dicarboxylic acid dimethyl ester] | 107±42% | 100 ± 10 nM | 60 ± 10 nM | –
4 | C=C[C@@]1(C)CC(=O)[C@]2(O)[C@@]3(C)[C@@H](O)CCC(C)(C)[C@@H]3[C@H](O)[C@H](OC(C)=O)[C@@]2(C)O1 [forskolin, reference compound] | – | – | – | cAMP content ([5]; maximal forskolin 20 μM): 1350±17 finol/well
5 | CC(C)(C)c1ccc(Oc2c(N)ccc3c2C(=O)c2ccccc2C3=O)cc1 [ΔF508act-04, 2-Amino-1-(4-tert-butyl-phenoxy)-anthraquinone] | 51±17% | 870 ± 100 nM | 20 ± 5 nM | cAMP content [5, 7]: 212±17 finol/well
6 | O=c1c(-c2ccc(O)cc2)coc2cc(O)cc(O)c12 [genistein, reference compound] | 174±28% | – | – | G551D-CFTR activation [6]: strong activation
7 | NC(=O)c1c(NC(=O)c2ccccc2Cl)sc2c1CCCC2 [ΔF508act-02, 2-(2-Chloro-benzoylamino)-4,5,6,7-tetrahydro-benzo[b]thiophene-3-carboxylic acid amide] | 131±35% | 180 ± 30 nM | 1300 ± 200 nM | –
8 | Cc1cc(Br)c2[nH]c3c(c2c1)CCCC3=O [ΔF508act-03, 8-Bromo-6-methyl-2,3,4,9-tetrahydro-carbazol-1-one] | 40±11% | 700 ± 40 nM | 2200 ± 300 nM | –
9 | COc1ccc(-n2c(C)cc(C=C3C(=O)NC(=O)N(Cc4ccco4)C3=O)c2C)cc1 [ΔF508act-01, 1-Furan-2-yhnethyl-5-[1-(4-methoxy-phenyl)-2,5-dimethyl-1H-pyrrol-3-ylmethylene]-pyrimidine-2,4,6-trione] | 174±34% | 1300 ± 100 nM | – | –
10 | NC(=O)c1oc2ccccc2c1NC(=O)c1ccccc1 [ΔF508act-06, 3-Benzoylamino-benzofuran-2-carboxylic acid amide] | 104±35% | 650 ± 80 nM | 50 ± 10 nM | cAMP content [5, 7]: 281±37 finol/well
